Reference: the supplement of paper PMC10307832

Assays:
Assay in all cases: relative viability (nuclei count vs DMSO), 5 days (fraction); higher = more cells survive
[1] = compound: CC[C@H](Nc1ncnc2[nH]cnc12)c1nc2cccc(F)c2c(=O)n1-c1ccccc1 [Idelalisib] + NC(=O)Nc1cc(-c2cccc(F)c2)sc1C(=O)N[C@H]1CCCNC1 [AZD7762] (partner 0.2 µM)
In short: (§1)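 Lung cancer cell lines were seeded in 1536-well plates and dosed by pin tool the next day, with either a single drug or a fixed anchor-drug dose combined with five library-drug doses (not always all listed) spaced in √10 steps. Five days later, one step fixed the cells and stained their nuclei (final 0.05% Triton X-100, 1% formaldehyde, 1 ug/ml Hoechst), and nuclei were counted on 4× images. Relative viability is the nuclei count in treated wells divided by the count in vehicle wells, and each value is the median of duplicate plates.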

[2] = compound: CC[C@H](Nc1ncnc2[nH]cnc12)c1nc2cccc(F)c2c(=O)n1-c1ccccc1 [Idelalisib] + Nc1ncn([C@H]2C[C@H](O)[C@@H](CO)O2)c(=O)n1 [Decitabine] (partner 2 µM)
In short: as §1

[3] = compound: CC[C@H](Nc1ncnc2[nH]cnc12)c1nc2cccc(F)c2c(=O)n1-c1ccccc1 [Idelalisib] + CS(=O)(=O)CCNCc1ccc(-c2ccc3ncnc(Nc4ccc(OCc5cccc(F)c5)c(Cl)c4)c3c2)o1 [Lapatinib] (partner 2 µM)
In short: as §1

[4] = compound: Nc1nc2[nH]cc(CCc3ccc(C(=O)N[C@@H](CCC(=O)O)C(=O)O)cc3)c2c(=O)[nH]1 [Pemetrexed] + CC1(C)CCC(c2ccc(Cl)cc2)=C(CN2CCN(c3ccc(C(=O)NS(=O)(=O)c4ccc(N[C@H](CCN5CCOCC5)CSc5ccccc5)c(S(=O)(=O)C(F)(F)F)c4)cc3)CC2)C1 [Navitoclax] (partner 0.5 µM)
In short: as §1

| Cell Line | relative viability ([1]; first compound 0.04 µM) | relative viability ([1]; first compound 0.1265 µM) | relative viability ([1]; first compound 0.4 µM) | relative viability ([1]; first compound 1.265 µM) | relative viability ([1]; first compound 4 µM) | relative viability ([2]; first compound 0.04 µM) | relative viability ([2]; first compound 0.1265 µM) | relative viability ([2]; first compound 0.4 µM) | relative viability ([2]; first compound 1.265 µM) | relative viability ([2]; first compound 4 µM) | relative viability ([3]; first compound 0.04 µM) | relative viability ([3]; first compound 0.1265 µM) | relative viability ([3]; first compound 0.4 µM) | relative viability ([3]; first compound 1.265 µM) | relative viability ([3]; first compound 4 µM) | relative viability ([4]; first compound 0.002 µM) | relative viability ([4]; first compound 0.006325 µM) | relative viability ([4]; first compound 0.02 µM) | relative viability ([4]; first compound 0.06325 µM) | relative viability ([4]; first compound 0.2 µM) |
| --- | --- | --- | --- | --- | --- | --- | --- | --- | --- | --- | --- | --- | --- | --- | --- | --- | --- | --- | --- | --- |
| SW 900 | 0.569 | 0.609 | 0.416 | 0.3 | 0.463 | 0.387 | 0.415 | 0.505 | 0.498 | 0.377 |  |  |  |  |  |  |  |  |  |  |
| PC-3 [JPC-3] | 0.916 | 0.889 | 0.806 | 0.707 | 0.569 | 0.917 | 0.89 | 0.763 | 0.819 | 0.772 | 0.455 | 0.49 | 0.439 | 0.44 | 0.36 | 0.726 | 0.762 | 0.796 | 0.89 | 0.749 |
| NCI-H1703 |  | 0.124 |  | 0.0966 | 0.126 |  |  |  |  |  | 1.53 | 1.03 | 0.961 | 1.29 | 0.618 | 1.04 | 0.967 | 1.86 | 1.24 | 1.09 |
| EPLC-272H | 0.202 | 0.171 | 0.28 | 0.124 | 0.153 | 0.35 | 0.354 | 0.366 | 0.435 | 0.333 | 0.951 | 1.04 | 0.705 | 0.901 | 0.84 | 1.24 | 1.05 | 1.19 | 1.12 | 1.05 |
| NCI-H1792 | 0.737 | 0.803 | 0.452 | 0.493 | 0.388 | 0.505 | 0.599 | 0.514 | 0.558 | 0.472 | 0.465 | 0.942 | 0.903 | 0.878 | 0.918 | 0.59 | 0.823 | 0.579 | 0.564 | 0.585 |
| NCI-H2085 | 0.951 | 0.979 | 0.887 | 0.436 | 0.471 | 0.528 | 0.57 | 0.622 | 0.596 | 0.61 | 0.744 | 0.757 | 0.687 | 0.723 | 0.503 | 1.05 | 1.18 | 1.07 | 1.12 | 1.15 |
| LK-2 | 0.637 | 0.395 |  | 0.27 | 0.371 | 0.357 | 0.239 |  | 0.407 | 0.343 | 1.03 | 0.98 | 0.63 | 0.978 | 0.965 | 0.835 | 0.844 | 0.823 | 0.8 | 0.592 |
| NCI-H1395 | 0.415 | 0.45 | 0.417 | 0.371 | 0.422 | 0.724 | 0.657 | 0.726 | 0.712 | 0.607 | 1.01 | 0.948 | 0.993 | 0.933 | 0.758 | 1.06 | 1.14 | 1.24 | 1.11 | 1.11 |
| ABC-1 | 0.904 | 0.738 | 0.783 | 0.729 | 0.864 | 1.03 | 1.2 | 1.08 | 1.17 | 1.15 | 1.11 | 1.19 | 1.13 | 1.01 | 1.08 |  |  |  |  |  |
